Source: publication PMC8769072, “Proteome‐scale mapping of binding sites in the unstructured regions of the human proteome” (Molecular Systems Biology, 2022)
Where no end group is shown, it is not given here. The star is where a group is joined. FITC = O=C1OC2(c3ccc(O)cc3Oc3cc(O)ccc32)c2ccc(NC(=S)*)cc21

Experiments:
[1] = target: T1, KPNA4 ARM (Homo sapiens, UniProt O00629); assay: FP competition, KPNA4 ARM major pocket (FITC-Myc probe); type: binding; conditions: for IC50: FP competition with FITC-Myc320-328 probe for the major pocket, 50 mM KPO4 pH 7.5, n = 3 technical replicates; for Kd: Fig 5D, FP competition with FITC-Myc320-328, major groove, n = 3
T1 construct: O00629; KPNA4; Arm; 68; 487; pETM33/pETM41; Genescript; made in house; host or cells: bacteria (E. coli BL21(DE3) gold is named only for the phage-selection preparations)
Text: (§1) Like other importins, KPNA4 has two distinct NLS‐binding pockets on the surface of an armadillo (ARM) repeat fold (major pocket, ARM 2–4; minor pocket, ARM 6–8; Fig 5B) (Smith et al, [2018]). Bipartite NLSs are usually 17–19 amino acids long and engage both pockets. Monopartite NLSs are short basic stretches, divided into five classes (Kosugi et al, [2009]): class I KR[KR]R or K[KR]RK, class II [PR]xxKR[^DE][KR] (where ^ indicates “not”), class III KRx[WFY]xxAF, class IV [RP]xxKR[KR][^DE], and class V LGKR[KR][WFY]. The class I and class II motifs preferentially interact with the major pocket (Kosugi et al, [2009]). In contrast, class III and class IV NLSs preferentially bind to the minor pocket. Using KPNA4 as a bait against the HD2 P8 library we identified 33 peptides found in 32 proteins. Of the 26 proteins for which information was available, 22 proteins were annotated as having nuclear or nucleolar localization in the UniProt database. To gain additional information we combined the data generated for KPNA4 by screening against the complete P8 HD2 library, with the results generated using two relevant sublibraries (the cytoplasmic and nuclear, and nuclear sublibraries) resulting in a set of 92 peptides containing NLS‐like sequences found in 76 proteins. Using these peptides we could generate consensus motifs that matched four of the previously reported NLS classes (Fig 5A; class I‐IV). […] Three peptides bound only to the major pocket. Eight peptides with class III motif and one KRxH‐containing peptide only bound to the minor pocket. Five peptides outcompeted both probe peptides, which may be explained by the amino acid sequence matching both class II and class III motifs (e.g., 1135‐ PSPKRKL ‐1139 in ZNF532; Fig 5), and possibly by cross specificity of the two binding pockets.

[2] = target: T1, KPNA4 ARM; assay: FP competition, KPNA4 ARM minor pocket (FITC-NCOR2 probe); type: binding
Text: as §1

[3] = target: T2, TLN1 PTB (Homo sapiens, UniProt Q9Y490); assay: FP competition, TLN1 PTB; type: binding
T2 construct: Q9Y490; TLN1; PTB; 309; pHH0103; Sidhu Lab (PMID: 33438817); made in house; host or cells: bacteria (E. coli BL21(DE3) gold is named only for the phage-selection preparations)

[4] = tested on: immobilized GST-tagged bait protein domains; assay: ProP-PD phage selections (HD2 P8, sublibraries, HD2 P3, HD1 P8) with NGS and confidence level; type: binding, human; conditions: bait CRK_SH3_1_P46108_124_198; library HD2; benchmarking set of validated motif instances; TRUE = motif instance recovered in the ProP-PD selection
[5] = target: T3, KEAP1 Kelch (Homo sapiens, UniProt Q14145); assay: FP competition, KEAP1 Kelch; type: binding
T3 construct: Q14145; KEAP1; Kelch; 321; 609; pETM33; Genescript; made in house; host or cells: bacteria (E. coli BL21(DE3) gold is named only for the phage-selection preparations)

[6] = target: T4, MDM2 SWIB (Homo sapiens, UniProt Q00987); assay: FP competition, MDM2 SWIB; type: binding
T4 construct: Q00987; MDM2; SWIB; 17; 125; pETM33; Genescript; His-GST (cleaved yes); made in house; host or cells: bacteria (E. coli BL21(DE3) gold is named only for the phage-selection preparations)

[7] = target: T1, KPNA4 ARM; assay: FP saturation (direct binding of FITC probes), KPNA4 ARM; conditions: direct binding of FITC-labeled probe, saturation with KPNA4 ARM

Work on DHQFPAKRPRLSEPQG-NH2 [HJURP] yielded an IC50 [1] of 0.076 µM and an IC50 [2] of 170 µM.
With DLIFTDSKLYIPLE-NH2 [TPTE] the IC50 [3] was 15 µM.
For DLKRRLDSITSSQSSA-NH2 [KDR], the IC50 [1] was 22 µM, the Kd [1] was 14 µM and the IC50 [2] was 24 µM.
In the case of EDSIEPPHKRLCLSSE-NH2 [DMTF1], the IC50 [1] is reported as 0.13 µM and the Kd [1] is reported as 0.075 µM.
For ELKRKLEQEQKLVEVL-NH2 [MKL2], the IC50 [2] was 36 µM.
Substance ERENPSKRSRIERDID-NH2 [CTDSPL2] has an IC50 [1] of 1.9 µM.
FPTDERSWVYSPLHYS-NH2 [PIP5K1C] showed an IC50 [3] of 0.42 µM and a Ki ([3]; Fig 3C, FP competition with FITC-PIP5K1C probe, triplicates) of 0.066 µM.
For GFDAVTGEFTGMPEQW-NH2 [PAK1], the motif_found [4] was “FALSE” and the IC50 [5] was 44 µM.
GFEAQWAALENKSKQR [NUMB] was tested, and the IC50 [6] was 130 µM.
GKKRTFDETVSTYVPL-NH2 [TPX2] showed an IC50 [2] of 0.41 µM and a Kd ([2]; read-out: KD (Fig 5D)) of 0.047 µM.
In the case of GVKRTYSEVYPGQQYL-NH2 [ZMIZ2], the IC50 [2] is reported as 0.43 µM.
IDPSTGERFPVTDAVN-NH2 [PLEC 4459-4474] was tested, and the IC50 [5] was 6.1 µM.
IPEKKQRLEEATTICL-NH2 [AFF2] showed an IC50 [1] of 2.3 µM and an IC50 [2] of 3800 µM.
PFKRPHSTISDSSTSS-NH2 [PLEKHG4B] gave an IC50 [2] of 3.6 µM.
Substance PKRTYDMMEGRVGRAI-NH2 [NCOR2] has an IC50 [2] of 0.12 µM.
SLAPVKRTYEQMEFPL-NH2 [ADNP] gave an IC50 [2] of 1.3 µM.
STMKRKHDEIQRSLPV-NH2 [ZBED9] gave an IC50 [2] of 2.4 µM.
THFAELWGHLDHTMFF [RNF115] gave an IC50 [6] of 9 µM and a Ki ([6]; Fig 3C, FP competition with FITC-p53 probe, triplicates) of 0.174 µM.
With TPEDDRSFQTVWATVF [KIAA1671] the IC50 [6] was 73 µM.
With VEPETKRLKLAASEDH-NH2 [ZRANB3] the IC50 [1] was 0.24 µM.
Work on VGPLTPLWTYPATAAG-NH2 [NYAP1] yielded an IC50 [3] of 62 µM.
For YDPVTGEWKSLAKLPE-NH2 [KLHL24], the IC50 [5] was 80 µM.
For “{FITC}-PAAKRVKLD [Myc, FITC-labeled Myc 320-328 probe for the KPNA4 major pocket]”, the Kd [7] was 0.03 µM.
